The values below come from PubChem BioAssay (NCI).

Each structure is given as a SMILES string.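 Step 1: Grow cells in 96-well plates. Step 2: Expose to compound for 48 hours at 5 concentrations. Step 3: Interpolate endpoints linearly; if unreached, use highest concentration. TGI denotes the concentration required for complete inhibition of growth.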

Assay in all cases: NCI tumour cell line growth inhibition, 48 h
The subject of experiment [1] is EKVX NSCLC.
Experiment [2] has as its system HCT-116 colon.
For experiment [3], the system named is HL-60(TB) leukemia.
Experiment [4] concerns HT29 colon.
Experiment [5] relates to KM12 colon.
The test system of experiment [6] is LOX IMVI melanoma.
In experiment [7] the test system is M14 melanoma.
Experiment [8] concerns MALME-3M melanoma.
Experiment [9] has as its system MDA-MB-435.
Experiment [10] has as its system NCI-H226 lung.
The test system of experiment [11] is NCI-H23 lung.
The test system of experiment [12] is NCI-H460 lung.
Experiment [13] deals with OVCAR-3 ovarian.
In experiment [14] the test system is OVCAR-4 ovarian.
For experiment [15], the system named is OVCAR-8 ovarian.
In experiment [16] the test system is RXF 393 renal.
Experiment [17] relates to SF-268 CNS.
For experiment [18], the system named is SK-MEL-28 melanoma.
For experiment [19], the system named is SN12C renal.
The subject of experiment [20] is SW-620 colon.

As for `O=[N+]([O-])c1c(F)c(F)c2c(c1F)Nc1ccccc1S2`, the TGI was 16 µM in experiment [1]; 6.18 µM in [2]; 16.1 µM in experiment [3]; 3.63 µM in experiment [4]; 15.5 µM in experiment [5]; 3.39 µM in experiment [6]. In addition, the TGI in [7] came to 10.4 µM; in [8], 18.5 µM; in experiment [9], 14.4 µM; in experiment [10], 35.2 µM; in experiment [11] it was 7.13 µM; in experiment [12] it was 41.8 µM. Moreover, the TGI in experiment [13] stood at 4.1 µM; in experiment [14], 6.59 µM; in experiment [15], 3.89 µM; in [16], 8.88 µM; in experiment [17] it was 6 µM; in experiment [18], 5.74 µM. Further, the TGI in experiment [19] was 12.8 µM; in [20] it was 6.28 µM.
With `O=c1ccn2n1Cc1ccccc1C2`, the TGI in [1], in experiment [2], in experiment [3], in experiment [4], in [5] and in [6] was greater than 100 µM each time. For the same molecule, the TGI in experiment [7], in [8], in [9], in [10], in experiment [11] and in experiment [12] was greater than 100 µM throughout. The TGI in [13], in experiment [14], in [15], in experiment [16], in experiment [17] and in experiment [18] was greater than 100 µM throughout. Also, the TGI in [19] and in experiment [20] was greater than 100 µM in each case.
With `CC[C@H](CCCC[C@H]1CC[C@@H]2CC(=O)C[C@H]12)OC`, the TGI is greater than 100 µM in experiment [1]; greater than 100 µM in experiment [2]; 67.8 µM in experiment [3]; greater than 100 µM in experiment [4]; greater than 100 µM in experiment [5]; greater than 100 µM in experiment [6]. The TGI in experiment [7], in experiment [8], in [9], in experiment [10], in [11] and in experiment [12] was greater than 100 µM throughout. In addition, the TGI in experiment [13], in experiment [14], in experiment [15], in experiment [16], in experiment [17] and in experiment [18] was greater than 100 µM each time. Also, the TGI in experiment [19] and in [20] was greater than 100 µM each time.
With `CN(Cc1ccccc1)C(=NC#N)N(Cc1ccccc1)Cc1ccccc1`, the TGI was greater than 100 µM in experiment [1]; greater than 55.3 µM in experiment [2]; greater than 100 µM in experiment [3]; 36.3 µM in [4]; 44.4 µM in [5]; 35 µM in experiment [6]. For the same molecule, the TGI in [7] is 47.7 µM; in experiment [8], 67.1 µM; in [9] it was 33.7 µM; in experiment [10] it was 67.5 µM; in experiment [11], 64 µM; in [12], greater than 90.1 µM. Also, the TGI is 44.7 µM in [13]; greater than 93 µM in [14]; greater than 100 µM in [15]; 95.9 µM in [16]; greater than 100 µM in experiment [17]; 83.1 µM in [18]. Also, the values for the TGI in experiment [19] and in experiment [20] were greater than 92.9 µM and greater than 100 µM, respectively.
Regarding `O=c1c2ccccc2nc(-c2cc3c(cc2Cl)Sc2nccn2S3(=O)=O)n1-c1ccccc1`, the TGI was 48 µM in [1]; 29.8 µM in experiment [2]; 15.5 µM in experiment [3]; greater than 100 µM in experiment [4]; 24.7 µM in [5]; greater than 100 µM in [6]. In addition, the TGI is greater than 100 µM in experiment [7]; greater than 100 µM in experiment [8]; 71.1 µM in experiment [9]; greater than 100 µM in experiment [10]; greater than 100 µM in [11]; greater than 100 µM in experiment [12]. In addition, the TGI turned out to be 29.4 µM in [13]; 44.8 µM in [14]; 44 µM in [15]; 36 µM in experiment [16]; 22.2 µM in [17]; 41.8 µM in experiment [18]. Besides, the TGI in experiment [19] was greater than 100 µM; in experiment [20], 47.5 µM.
As to `COC(=O)C1CC2CCC1(O[Si](C(C)C)(C(C)C)C(C)C)C(O)C2` (stereo not given), the TGI in experiment [1] was 33.6 µM; in experiment [2], 36.2 µM; in experiment [3], greater than 100 µM; in experiment [4], 30.2 µM; in [5], 38.6 µM; in experiment [6], 27.5 µM. Besides, the TGI in experiment [7] is 32.7 µM; in experiment [8] it was greater than 100 µM; in experiment [9], 30.9 µM; in experiment [10] it was 40.7 µM; in experiment [11], 44.9 µM; in [12], greater than 100 µM. The TGI in experiment [13] was 39.3 µM; in experiment [14], greater than 100 µM; in experiment [15] it was 28.1 µM; in experiment [16] it was 28.8 µM; in [17], 79.2 µM; in experiment [18] it was 44.9 µM. The values for the TGI in experiment [19] and in experiment [20] were 34.5 µM and 60.8 µM, respectively.
In the case of `COc1ccc(/C=C2\CCC(CNc3ccc(S(N)(=O)=O)cc3)C2=O)cc1` (stereo not given), the TGI in experiment [1] was greater than 69.2 µM; in experiment [2], 22.9 µM; in [3], 7.73 µM; in experiment [4], 25.9 µM; in experiment [5], 31.3 µM; in [6], 23.8 µM. Moreover, the TGI was 36.4 µM in experiment [7]; 36 µM in experiment [8]; 41.3 µM in experiment [9]; greater than 100 µM in experiment [10]; 39.6 µM in [11]; greater than 77.2 µM in experiment [12]. Also, the TGI was 22.7 µM in [13]; greater than 81.2 µM in [14]; 35.4 µM in experiment [15]; 35.3 µM in [16]; 54.4 µM in experiment [17]; 34.7 µM in experiment [18]. In addition, the TGI in [19] amounted to 35.9 µM; in experiment [20], 19.3 µM.
Consider `O=c1[nH]nc(-c2ccccc2)n1Nc1ccccc1`, for which the TGI in experiment [1], in experiment [2], in experiment [3], in experiment [4], in experiment [5] and in [6] was greater than 100 µM throughout. Besides, the TGI in experiment [7], in experiment [8], in experiment [9], in [10], in [11] and in experiment [12] was greater than 100 µM each time. Besides, the TGI in experiment [13], in experiment [14], in experiment [15], in [16], in experiment [17] and in experiment [18] was greater than 100 µM throughout. The TGI in experiment [19] and in experiment [20] was greater than 100 µM in each case.
Take `Cc1ccc2nc3c(=O)[nH]c(=O)nc-3n(C)c2c1C`: the TGI in experiment [1], in [2], in experiment [3], in experiment [4], in experiment [5] and in [6] was greater than 100 µM each time. Moreover, the TGI in experiment [7], in [8], in experiment [9], in experiment [10], in experiment [11] and in experiment [12] was greater than 100 µM in each case. The TGI in experiment [13], in experiment [14], in experiment [15], in experiment [16], in experiment [17] and in [18] was greater than 100 µM in each case. Moreover, the TGI in [19] and in experiment [20] was greater than 100 µM in each case.
